In patent publication US20230157975A1, “TREATMENT OF PULMONARY FIBROSIS” (REGENALL LIMITED, priority 2020, published 2023):

What was measured:
[1] = test system: bleomycin-induced lung fibrosis; conditions: rats; by downregulating the TGF-β1/Smad3 signalling pathway; cited from earlier work
Tendon injury = test: Tendon injury, recovery following treatment with Vitamin A (Example 3); format: in vivo; conditions: Horse subject 1 (polo pony); oral 750,000 IU twice daily, at least 4 weeks; started approximately 20 days after injury
Excerpt: [table] Treatment with Vitamin A was initiated approximately 20 days after the initial injury. Retinyl palmitate (93.8% Retinol Equivalent) Oral 750,000 IU Twice daily (1,500,000 IU per day) Continuing (at least 4 weeks)

SMILES | Effect on bleomycin-induced lung fibrosis [1] | Functional recovery (Tendon injury) | Size of the lesion by ultrasonography (Tendon injury)
CC1=C(/C=C/C(C)=C/C=C/C(C)=C/C(=O)O)C(C)(C)CCC1 [RA] | ameliorates bleomycin-induced lung fibrosis |  | 
CCCCCCCCCCCCCCCC(=O)OC/C=C(C)/C=C/C=C(C)/C=C/C1=C(C)CCCC1(C)C [Vitamin A, Retinyl palmitate] |  | good | good reduction in the size of the lesion
